Data: PubChem BioAssay (NCI)
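48-hour exposure; five concentrations; linearly interpolated endpoints. TGI: total growth inhibition.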

Legend:
Assay in all cases: NCI-60 cell line screen, 48 h
[1] = system: 786-0 renal
[2] = system: A549 NSCLC
[3] = system: ACHN renal
[4] = system: CAKI-1 renal
[5] = system: CCRF-CEM leukemia
[6] = system: COLO 205 colon
[7] = system: DLD-1 colon
[8] = system: DMS 114 small cell lung
[9] = system: DMS 273 small cell lung
[10] = system: EKVX NSCLC
[11] = system: HCC-2998 colon
[12] = system: HCT-116 colon
[13] = system: HCT-15 colon
[14] = system: HL-60(TB) leukemia
[15] = system: HOP-62 NSCLC
[16] = system: HOP-92 NSCLC
[17] = system: HT29 colon
[18] = system: IGROV1 ovarian
[19] = system: K-562 leukemia
[20] = system: KM12 colon
[21] = system: KM20L2 colon
[22] = system: LOX IMVI melanoma
[23] = system: LXFL 529 NSCLC
[24] = system: M14 melanoma
[25] = system: M19-MEL melanoma
[26] = system: MALME-3M melanoma
[27] = system: NCI-H226 lung
[28] = system: NCI-H23 lung
[29] = system: NCI-H460 lung
[30] = system: NCI-H522 lung
[31] = system: OVCAR-3 ovarian
[32] = system: OVCAR-4 ovarian
[33] = system: OVCAR-5 ovarian
[34] = system: OVCAR-8 ovarian
[35] = system: RPMI-8226 leukemia
[36] = system: RXF 393 renal
[37] = system: SF-268 CNS
[38] = system: SF-295 CNS
[39] = system: SF-539 CNS
[40] = system: SK-MEL-2 melanoma
[41] = system: SK-MEL-28 melanoma
[42] = system: SK-MEL-5 melanoma
[43] = system: SK-OV-3 ovarian
[44] = system: SN12C renal
[45] = system: SNB-19 CNS
[46] = system: SNB-75 CNS
[47] = system: SNB-78 CNS
[48] = system: SR leukemia
[49] = system: SW-620 colon
[50] = system: TK-10 renal
[51] = system: U251 CNS
[52] = system: UACC-62 melanoma
[53] = system: UO-31 renal
[54] = system: MOLT-4 leukemia
[55] = system: UACC-257 melanoma
[56] = system: A498 renal
[57] = system: HOP-18 NSCLC
[58] = system: BT-549 breast
[59] = system: DU-145 prostate
[60] = system: HS 578T breast
[61] = system: MCF7 breast
[62] = system: MDA-MB-231 breast
[63] = system: MDA-MB-435
[64] = system: MDA-N
[65] = system: NCI/ADR-RES ovarian
[66] = system: PC-3 prostate
[67] = system: T-47D breast

Work on `CC1=COC(=O)c2ccccc2N1` yielded a TGI [1] greater than 100 µM, a TGI [2] greater than 100 µM and a TGI [3] greater than 100 µM. It also gave a TGI [4] greater than 100 µM, a TGI [5] greater than 100 µM and a TGI [6] greater than 100 µM. For the same compound, the TGI [7] was greater than 100 µM, the TGI [8] was greater than 100 µM and the TGI [9] was greater than 100 µM. For the same compound, the TGI [10] was greater than 100 µM, the TGI [11] was greater than 100 µM and the TGI [12] was greater than 100 µM. For the same compound, the TGI [13] was greater than 100 µM, the TGI [14] was greater than 100 µM and the TGI [15] was greater than 100 µM. It also gave a TGI [16] greater than 100 µM, a TGI [17] greater than 100 µM and a TGI [18] greater than 100 µM. It also gave a TGI [19] greater than 100 µM, a TGI [20] greater than 100 µM and a TGI [21] greater than 100 µM. For the same compound, the TGI [22] was greater than 100 µM, the TGI [23] was greater than 100 µM and the TGI [24] was greater than 100 µM. It also gave a TGI [25] greater than 100 µM, a TGI [26] greater than 100 µM and a TGI [27] greater than 100 µM. It also gave a TGI [28] greater than 100 µM, a TGI [29] greater than 100 µM and a TGI [30] greater than 100 µM. It also gave a TGI [31] greater than 100 µM, a TGI [32] greater than 100 µM and a TGI [33] greater than 100 µM. For the same compound, the TGI [34] was greater than 100 µM, the TGI [35] was greater than 100 µM and the TGI [36] was greater than 100 µM. For the same compound, the TGI [37] was greater than 100 µM, the TGI [38] was greater than 100 µM and the TGI [39] was greater than 100 µM. It also gave a TGI [40] greater than 100 µM, a TGI [41] greater than 100 µM and a TGI [42] greater than 100 µM. The TGI [43] was greater than 100 µM, the TGI [44] was greater than 100 µM and the TGI [45] was greater than 100 µM. For the same compound, the TGI [46] was greater than 100 µM, the TGI [47] was greater than 100 µM and the TGI [48] was greater than 100 µM. The TGI [49] was greater than 100 µM, the TGI [50] was greater than 100 µM and the TGI [51] was greater than 100 µM. For the same compound, the TGI [52] was greater than 100 µM and the TGI [53] was greater than 100 µM.
Work on `O=C1CC2CC=C[C@H]3c4cc5c(cc4C(=O)N1C23)OCO5` (some centres undefined) yielded a TGI [1] greater than 50 µM, a TGI [2] greater than 50 µM and a TGI [3] greater than 50 µM. It also gave a TGI [5] greater than 50 µM, a TGI [6] greater than 50 µM and a TGI [7] greater than 50 µM. It also gave a TGI [8] greater than 50 µM, a TGI [9] greater than 50 µM and a TGI [10] greater than 50 µM. For the same compound, the TGI [11] was greater than 50 µM, the TGI [12] was greater than 50 µM and the TGI [13] was greater than 50 µM. It also gave a TGI [14] greater than 50 µM, a TGI [15] greater than 50 µM and a TGI [17] greater than 50 µM. For the same compound, the TGI [18] was greater than 50 µM, the TGI [19] was greater than 50 µM and the TGI [20] was greater than 50 µM. The TGI [21] was greater than 50 µM, the TGI [22] was greater than 50 µM and the TGI [23] was greater than 50 µM. The TGI [24] was greater than 50 µM, the TGI [25] was greater than 50 µM and the TGI [26] was greater than 50 µM. It also gave a TGI [54] greater than 50 µM, a TGI [27] greater than 50 µM and a TGI [28] greater than 50 µM. It also gave a TGI [29] greater than 50 µM, a TGI [30] greater than 50 µM and a TGI [31] greater than 50 µM. It also gave a TGI [34] greater than 50 µM, a TGI [35] greater than 50 µM and a TGI [36] greater than 50 µM. For the same compound, the TGI [37] was greater than 50 µM, the TGI [38] was greater than 50 µM and the TGI [39] was greater than 50 µM. The TGI [41] was greater than 50 µM, the TGI [43] was greater than 50 µM and the TGI [44] was greater than 50 µM. It also gave a TGI [45] greater than 50 µM, a TGI [46] greater than 50 µM and a TGI [47] greater than 50 µM. The TGI [49] was greater than 50 µM, the TGI [50] was greater than 50 µM and the TGI [51] was greater than 50 µM. It also gave a TGI [55] greater than 50 µM, a TGI [52] greater than 50 µM and a TGI [53] greater than 50 µM.
Compound `CCCCCCC(=O)C/C(CCC(=O)N(Cc1ccccc1)Cc1ccccc1)=N\Nc1ccc([N+](=O)[O-])cc1[N+](=O)[O-]` has a TGI [1] greater than 100 µM, a TGI [56] greater than 100 µM and a TGI [2] greater than 100 µM. The TGI [3] was greater than 100 µM, the TGI [4] was greater than 100 µM and the TGI [5] was 56.1 µM. The TGI [6] was greater than 100 µM, the TGI [7] was greater than 100 µM and the TGI [8] was 40.6 µM. It also gave a TGI [9] greater than 100 µM, a TGI [10] greater than 100 µM and a TGI [11] greater than 100 µM. It also gave a TGI [12] greater than 100 µM, a TGI [13] greater than 100 µM and a TGI [14] greater than 100 µM. The TGI [57] was greater than 100 µM, the TGI [15] was greater than 100 µM and the TGI [16] was greater than 100 µM. The TGI [17] was greater than 100 µM, the TGI [18] was greater than 100 µM and the TGI [19] was 58.2 µM. The TGI [20] was greater than 100 µM, the TGI [21] was greater than 100 µM and the TGI [22] was greater than 100 µM. The TGI [23] was greater than 100 µM, the TGI [24] was greater than 100 µM and the TGI [25] was greater than 100 µM. The TGI [26] was greater than 100 µM, the TGI [27] was greater than 100 µM and the TGI [28] was greater than 100 µM. It also gave a TGI [29] greater than 100 µM, a TGI [30] greater than 100 µM and a TGI [31] greater than 100 µM. The TGI [32] was greater than 100 µM, the TGI [33] was greater than 100 µM and the TGI [34] was greater than 100 µM. For the same compound, the TGI [35] was greater than 100 µM, the TGI [36] was greater than 100 µM and the TGI [37] was greater than 100 µM. For the same compound, the TGI [38] was greater than 100 µM, the TGI [39] was greater than 100 µM and the TGI [40] was greater than 100 µM. For the same compound, the TGI [41] was greater than 100 µM, the TGI [42] was greater than 100 µM and the TGI [43] was greater than 100 µM. The TGI [44] was greater than 100 µM, the TGI [45] was greater than 100 µM and the TGI [46] was greater than 100 µM. The TGI [47] was greater than 100 µM, the TGI [49] was greater than 100 µM and the TGI [50] was greater than 100 µM. For the same compound, the TGI [51] was greater than 100 µM, the TGI [55] was greater than 100 µM and the TGI [52] was greater than 100 µM. It also gave a TGI [53] greater than 100 µM.
For `CC[C@@H](CCCC[C@@H]1CC[C@H]2CC(=O)C[C@@H]12)OC`, the TGI [1] was greater than 100 µM, the TGI [56] was greater than 100 µM and the TGI [2] was greater than 100 µM. It also gave a TGI [3] greater than 100 µM, a TGI [58] greater than 100 µM and a TGI [4] greater than 100 µM. For the same compound, the TGI [5] was greater than 100 µM, the TGI [6] was greater than 100 µM and the TGI [59] was greater than 100 µM. It also gave a TGI [10] greater than 100 µM, a TGI [11] greater than 100 µM and a TGI [12] greater than 100 µM. For the same compound, the TGI [13] was greater than 100 µM, the TGI [14] was greater than 100 µM and the TGI [15] was greater than 100 µM. It also gave a TGI [16] greater than 100 µM, a TGI [60] greater than 100 µM and a TGI [17] greater than 100 µM. It also gave a TGI [18] greater than 100 µM, a TGI [19] greater than 100 µM and a TGI [20] greater than 100 µM. It also gave a TGI [22] greater than 100 µM, a TGI [24] greater than 100 µM and a TGI [26] greater than 100 µM. The TGI [61] was greater than 100 µM, the TGI [62] was greater than 100 µM and the TGI [63] was greater than 100 µM. It also gave a TGI [64] greater than 100 µM, a TGI [54] greater than 100 µM and a TGI [27] greater than 100 µM. For the same compound, the TGI [28] was greater than 100 µM, the TGI [29] was greater than 100 µM and the TGI [30] was greater than 100 µM. It also gave a TGI [65] greater than 100 µM, a TGI [31] greater than 100 µM and a TGI [32] greater than 100 µM. For the same compound, the TGI [33] was greater than 100 µM, the TGI [34] was greater than 100 µM and the TGI [66] was greater than 100 µM. The TGI [35] was greater than 100 µM, the TGI [36] was greater than 100 µM and the TGI [37] was greater than 100 µM. The TGI [38] was greater than 100 µM, the TGI [39] was greater than 100 µM and the TGI [40] was greater than 100 µM. It also gave a TGI [41] greater than 100 µM, a TGI [42] greater than 100 µM and a TGI [43] greater than 100 µM. It also gave a TGI [44] greater than 100 µM, a TGI [45] greater than 100 µM and a TGI [46] greater than 100 µM. The TGI [48] was greater than 100 µM, the TGI [49] was greater than 100 µM and the TGI [67] was greater than 100 µM. The TGI [50] was greater than 100 µM, the TGI [51] was greater than 100 µM and the TGI [55] was greater than 100 µM. It also gave a TGI [52] greater than 100 µM.
